Results taken from patent US20220298145A1, “BRAF INHIBITORS AS PARADOX BREAKERS” (Hoffmann-La Roche Inc., priority 2019, published 2022).
pEC50, pIC50, pKd: −log10 of the molar value.

Key:
CRAF = CRAF (Homo sapiens, UniProt P04049); test: Kd for RAF kinases: CRAF; format: binding
BRAF (V600E) = BRAF (V600E) (Homo sapiens, UniProt P15056, V600E); test: Kd for RAF kinases: BRAF (V600E); format: binding
[1] = system: ERK 1,2 phosphorylation in A375 cells expressing V600E mutated BRAF; test: HTRF assay for P-ERK determination in A375 cells (BRAF inhibition); format: cell-based; conditions: Homo sapiens, A-375, 1 h, read-out: pERK IC50 A375
Description: (§1) DMEM no-phenol red medium supplemented with L-glutamine was purchased from (Thermo Fisher Scientific). Fetal bovine serum (FBS) was purchased from VWR. Advanced ERK phospho-T202/Y204 kit-10,000 tests was purchased from Cisbio cat #64AERPEH. A375 and HCT116 cells were originally obtained from ATCC and banked by the Roche repository.
A375 is a cellular cancer model expressing V600E mutated BRAF and HCT116 a cellular cancer model expressing WT BRAF. […] ERK 1,2 phosphorylation (terminal member of the phosphorylation cascade of the MAPK pathway) is hereafter reported as main readout for the activation status of the MAPK pathway. Prior to the assay, A375 and HCT116 cell lines are maintained in DMEM no-phenol red medium supplemented with 10% fetal bovine serum (FBS). […] Briefly, 8000 cells/well in 12 μl media/well are plated in the 384-well plate and left overnight in the incubator (at 37° C. with 5% CO2-humidified atmosphere), the following day the plate is treated in duplicate with test compounds, dabrafenib and PLX8394 (the latter two as controls) at the following final drug concentrations: 10 μM-3 μM-1 μM-0.3 μM-0.1 μM-0.03 μM-0.01 μM-0.003 μM-0.001 μM, all wells are subjected to DMSO normalization and drug incubation occurs for 1 hour. Then, 4 μl of a 4× lysis buffer supplied with the kit are added to the wells, the plate is then centrifuged for 30 second (300 rcf) and incubated on a plate shaker for 1 h at RT.
(§2) At the end of the incubation 4 μL/well of advanced P-ERK antibody solution (prepared according to manufacturer's instruction) followed by 4 μL/well of criptate P-ERK antibody solution (prepared according to manufacturer's instruction) (Cisbio cat #64AERPEH) are added to test wells.
(§3) In order to allow proper data normalization control wells non drug treated reported in the following table are always included in each plate (according to manufacturer's instruction):
(§4) The plate is then centrifuged at 300 rcf for 30 second, sealed to prevent evaporation and incubated overnight in the dark at room temperature.
(§5) The obtained fluorescence values are processed according to the formula Ratio=Signal (620 nm)/Signal (625 nm)*10000 then the average of the ratio on the blank is subtracted to all values.
Data are normalized in the case of A375 cells (BRAF inhibition) considering the average of the ratio (blank subtracted) derived by DMSO only treated cells as 100% and by considering the average of the ratio (blank subtracted) derived by 10 uM dabrafenib treated cells as 0%. Mean of the normalized points are fitted with sigmoidal curve and IC50 determined.

BRAF = BRAF (Homo sapiens, UniProt P15056); test: Kd for RAF kinases: BRAF; format: binding
[2] = system: ERK 1,2 phosphorylation in HCT116 cells expressing WT BRAF; test: HTRF assay for P-ERK determination in HCT116 cells (paradoxical BRAF activation); format: cell-based; conditions: for Emax: Homo sapiens, HCT-116, read-out: Percentage of maximum paradox inducing effect from dabrafenib; for pEC50: read-out: P-ERK EC50 conc. at which the compound induces p-ERK activation of 50% of that induced by dabrafenib (Positive control paradox inducer) HCT-116, HCT-116 cells, 1 hour drug incubation, not applicable = activation does not reach 50% of dabrafenib maximum
Description: as §1, with “repository. 384-well microplates were purchased from Greiner Bio-One, 384-well, (With Lid, HiBase, Low volume cat 784-080).” for “repository.”
A375 is a cellular cancer model expressing V600E mutated BRAF and HCT116 a cellular cancer model expressing WT BRAF. First generation BRAF inhibitors such as e.g. dabrafenib induce a paradox effect on tumour cells in that they inhibit the growth of V600E mutated BRAF cells (such as e.g. A375), while they activate growth in WT BRAF cells (such as e.g. HCT 116). ERK 1,2 phosphorylation (terminal member of the phosphorylation cascade of the MAPK pathway) is hereafter reported as main readout for the activation status of the MAPK pathway. Prior to the assay, A375 and HCT116 cell lines are maintained in DMEM no-phenol red medium supplemented with 10% fetal bovine serum (FBS). Following compound treatment, P-ERK levels are determined by measuring FRET fluorescence signal induced by selective binding of 2 antibodies provided in the mentioned kit (Cisbio cat #64AERPEH) on ERK protein when phosphorylated at Thr202/Tyr204. Briefly, 8000 cells/well in 12 μl media/well are plated in the 384-well plate and left overnight in the incubator (at 37° C. with 5% CO2-humidified atmosphere), the following day the plate is treated in duplicate with test compounds, dabrafenib and PLX8394 (the latter two as controls) at the following final drug concentrations: 10 μM-3 μM-1 μM-0.3 μM-0.1 μM-0.03 μM-0.01 μM-0.003 μM-0.001 μM, all wells are subjected to DMSO normalization and drug incubation occurs for 1 hour. Then, 4 μl of a 4× lysis buffer supplied with the kit are added to the wells, the plate is then centrifuged for 30 second (300 rcf) and incubated on a plate shaker for 1 h at RT.
as §2, §3, §4
The plate is then analyzed and fluorescence emission value collected through a Pherastast FSX (BMG Labtech) apparatus at […].
as §5
Data are normalized in the case of HCT116 cells (BRAF activation) considering the average of the ratio (blank subtracted) derived by DMSO only treated cells as 0% and by considering the average of the ratio (blank subtracted) derived by dabrafenib treated cells at the concentration which provides the highest signal as 100%. Individual points are fitted with either sigmoidal or bell shape curves, and the percentage of activation compared to maximum dabrafenib-mediated activation is determined. The EC50 is the concentration at which activation equal to 50% of the maximum achieved by dabrafenib is obtained.
The Percentage of Maximum paradox inducing effect from dabrafenib is determined by evaluating the percentage at which the test compound induce its maximum P-ERK signal as percentage of the highest signal produced by dabrafenib within the dose range tested.

BRAF, sequence (P15056 whole entry): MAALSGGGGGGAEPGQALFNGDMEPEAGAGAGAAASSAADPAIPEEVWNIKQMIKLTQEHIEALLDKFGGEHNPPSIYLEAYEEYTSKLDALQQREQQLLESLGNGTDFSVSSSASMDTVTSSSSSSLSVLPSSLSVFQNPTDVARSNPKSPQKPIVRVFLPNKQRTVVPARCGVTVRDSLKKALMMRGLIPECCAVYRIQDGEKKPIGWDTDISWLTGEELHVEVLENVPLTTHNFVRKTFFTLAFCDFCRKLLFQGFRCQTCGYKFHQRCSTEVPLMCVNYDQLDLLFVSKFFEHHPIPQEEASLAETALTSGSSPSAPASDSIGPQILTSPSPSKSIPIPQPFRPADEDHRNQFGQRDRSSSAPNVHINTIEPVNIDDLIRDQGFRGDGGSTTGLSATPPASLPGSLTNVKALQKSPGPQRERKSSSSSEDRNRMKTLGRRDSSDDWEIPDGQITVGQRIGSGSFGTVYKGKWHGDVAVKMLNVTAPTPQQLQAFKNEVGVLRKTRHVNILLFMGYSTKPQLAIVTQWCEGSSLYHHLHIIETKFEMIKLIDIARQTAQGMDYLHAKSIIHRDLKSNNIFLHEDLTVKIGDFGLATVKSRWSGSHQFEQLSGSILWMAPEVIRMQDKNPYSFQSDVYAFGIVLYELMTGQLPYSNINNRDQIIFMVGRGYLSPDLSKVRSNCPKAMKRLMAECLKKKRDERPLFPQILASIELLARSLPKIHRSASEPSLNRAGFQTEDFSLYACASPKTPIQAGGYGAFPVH
BRAF (V600E), sequence (P15056 whole entry V600E): as the sequence (P15056 whole entry) above, with V600E counted along it
CRAF, sequence (P04049 whole entry): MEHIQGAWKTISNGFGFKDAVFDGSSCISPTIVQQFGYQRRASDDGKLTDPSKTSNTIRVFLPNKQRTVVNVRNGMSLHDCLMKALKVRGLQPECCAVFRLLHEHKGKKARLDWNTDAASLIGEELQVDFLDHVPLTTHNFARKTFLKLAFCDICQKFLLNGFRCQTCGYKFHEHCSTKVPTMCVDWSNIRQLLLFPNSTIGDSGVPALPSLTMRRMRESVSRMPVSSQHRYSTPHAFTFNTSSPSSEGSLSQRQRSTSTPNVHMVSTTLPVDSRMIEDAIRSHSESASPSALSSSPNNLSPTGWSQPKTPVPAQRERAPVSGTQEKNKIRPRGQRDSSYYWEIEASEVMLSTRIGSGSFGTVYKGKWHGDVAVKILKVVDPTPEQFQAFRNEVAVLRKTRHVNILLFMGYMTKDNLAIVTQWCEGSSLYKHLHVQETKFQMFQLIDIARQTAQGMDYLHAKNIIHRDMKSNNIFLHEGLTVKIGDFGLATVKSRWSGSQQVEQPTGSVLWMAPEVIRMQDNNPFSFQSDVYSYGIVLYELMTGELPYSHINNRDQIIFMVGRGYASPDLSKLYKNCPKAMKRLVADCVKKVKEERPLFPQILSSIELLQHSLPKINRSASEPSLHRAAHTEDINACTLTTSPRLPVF

Row | pKd (CRAF) | pKd (BRAF (V600E)) | pIC50 [1] | pKd (BRAF) | pEC50 [2] | SMILES | Emax [2] [%]
1 | 9.15 | 8.72 | 8.64 | 9.00 | 6.82 | Cn1cnc2ccc(Oc3c(F)ccc(NS(=O)(=O)C4CCCC4)c3C#N)cc2c1=O [Example 16, N-[2-cyano-4-fluoro-3-(3-methyl-4-oxo-quinazolin-6-yl)oxy-phenyl]cyclopentanesulfonamide] | 70
2 | 8.52 | 8.37 | 8.59 | 8.77 | 6.01 | CN(C)S(=O)(=O)Nc1ccc(F)c(Oc2ccc3ncn(C)c(=O)c3c2)c1C#N [Example 17, 6-[2-cyano-3-(dimethylsulfamoylamino)-6-fluoro-phenoxy]-3-methyl-4-oxo-quinazoline] | 71
